Reference: patent publication US20060235076A1, “Medicinal composition for treating infection with drug-resistant staphylococcus aureus” (priority 2003, published 2006)
Values after ≈ are worked out from the molar mass of the structure shown. Like-named read-outs stand apart in the source and are kept apart here.

Experiments:
Format in all cases: cell-based, Staphylococcus aureus
MRSA and MSSA [1] = assay: Antibacterial activity of gallic acid, various gallates and multivalent phenol derivatives alone (agar plate dilution method, MIC); details: Staphylococcus aureus
In short: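 Each compound tested alone. Bacteria cultured overnight at 37 °C, then brought to 10^6 CFU/ml in saline and tested on MHA II with added Ca-ion (50 mg/l), Mg-ion (25 mg/l) and 2% NaCl. MIC read by the Japan Society of Chemotherapy agar dilution method.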

MRSA and MSSA [2] = assay: Enhancing activity for the antibacterial activity of oxacillin by various gallates (agar plate dilution method, oxacillin MIC); details: MRSA and MSSA
Protocol: (§1) According to the agar plate dilution method defined by Japan Society of Chemotherapy, MIC (Minimum inhibitory concentration) was determined. CAMHA was prepared by adding 50 mg/l of Ca-ion, 25 mg/l of Mg-ion, and 2% of NaCl to Mueller-Hinton II Agar (MHA), and it was used as a medium for use in the measurement of sensitivity. The bacterial liquid was incubated at 37° C. overnight and diluted to 10^6 CFU/ml with saline.

[3] = system: MRSA COL and MRSA Strain No. 5; assay: Potentiating effect of various gallates for antibacterial activity of oxacillin (MIC by broth microdilution method and FIC); details: for FIC value: combination with oxacillin
In short: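 Broth microdilution MIC per Japan Society of Chemotherapy method in cation-adjusted Mueller-Hinton broth (50 mg/l Ca, 25 mg/l Mg, 2% NaCl); inoculum 5×10^5 CFU/well from overnight 37° C culture. Gallate–oxacillin combinations evaluated by FIC.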

MRSA = assay: Potentiating effect of isoamyl gallate for the antibacterial activity of other β-lactams (agar plate dilution method, MIC)
Protocol: as §1

[4] = COL, compound alone, read-out: MIC
[5] = MRSA #1, compound alone, read-out: MIC
[6] = MRSA #2, compound alone, read-out: MIC
[7] = MRSA #3, compound alone, read-out: MIC
[8] = MRSA #4, compound alone, read-out: MIC
[9] = MRSA #5, compound alone, read-out: MIC
[10] = MRSA #6, compound alone, read-out: MIC
[11] = MRSA #7, compound alone, read-out: MIC
[12] = MRSA #8, compound alone, read-out: MIC
[13] = MRSA #9, compound alone, read-out: MIC
[14] = MRSA #10, compound alone, read-out: MIC
[15] = MRSA #12, compound alone, read-out: MIC
[16] = MRSA #16, compound alone, read-out: MIC
[17] = MRSA #17, compound alone, read-out: MIC
[18] = MRSA #18, compound alone, read-out: MIC
[19] = MRSA #20, compound alone, read-out: MIC
[20] = MRSA #21, compound alone, read-out: MIC
[21] = MRSA #22, compound alone, read-out: MIC
[22] = MRSA #24, compound alone, read-out: MIC
[23] = MSSA #1003, compound alone, read-out: MIC
[24] = MSSA #1010, compound alone, read-out: MIC
[25] = MSSA #1020, compound alone, read-out: MIC
[26] = MSSA #1023, compound alone, read-out: MIC
[27] = MSSA #1029, compound alone, read-out: MIC
[28] = MSSA #1032, compound alone, read-out: MIC
[29] = RN4220, with isoamyl gallate 25 mg/ml

CC(C)CCOC(=O)c1cc(O)c(O)c(O)c1 [isoAmyl gallate, Isoamyl gallate]
MIC50 (MRSA and MSSA [1]): 62.5 µg/mL (≈ 260 µM) | MIC (MRSA and MSSA [1]; ATCC 6538 / MRSA / MSSA): 62.5 µg/mL (≈ 260 µM) | MIC (MRSA and MSSA [1]; [4]): 62.5 µg/mL (≈ 260 µM) | MIC (MRSA and MSSA [1]; [5]): 62.5 µg/mL (≈ 260 µM) | MIC (MRSA and MSSA [1]; [6]): 62.5 µg/mL (≈ 260 µM) | MIC (MRSA and MSSA [1]; [7]): 62.5 µg/mL (≈ 260 µM) | MIC (MRSA and MSSA [1]; [8]): 62.5 µg/mL (≈ 260 µM) | MIC (MRSA and MSSA [1]; [9]): 62.5 µg/mL (≈ 260 µM) | MIC (MRSA and MSSA [1]; [10]): 62.5 µg/mL (≈ 260 µM) | MIC (MRSA and MSSA [1]; [11]): 62.5 µg/mL (≈ 260 µM) | MIC (MRSA and MSSA [1]; [12]): 62.5 µg/mL (≈ 260 µM) | MIC (MRSA and MSSA [1]; [13]): 62.5 µg/mL (≈ 260 µM) | MIC (MRSA and MSSA [1]; [14]): 31.3 µg/mL (≈ 130 µM) | MIC (MRSA and MSSA [1]; [15]): 62.5 µg/mL (≈ 260 µM) | MIC (MRSA and MSSA [1]; [16]): 62.5 µg/mL (≈ 260 µM) | MIC (MRSA and MSSA [1]; [17]): 62.5 µg/mL (≈ 260 µM) | MIC (MRSA and MSSA [1]; [18]): 62.5 µg/mL (≈ 260 µM) | MIC (MRSA and MSSA [1]; [19]): 62.5 µg/mL (≈ 260 µM) | MIC (MRSA and MSSA [1]; [20]): 62.5 µg/mL (≈ 260 µM) | MIC (MRSA and MSSA [1]; [21]): 125 µg/mL (≈ 520 µM) | MIC (MRSA and MSSA [1]; [22]): 125 µg/mL (≈ 520 µM) | MIC (MRSA and MSSA [1]; [23]): 125 µg/mL (≈ 520 µM) | MIC (MRSA and MSSA [1]; [24]): 62.5 µg/mL (≈ 260 µM) | MIC (MRSA and MSSA [1]; [25]): 62.5 µg/mL (≈ 260 µM) | MIC (MRSA and MSSA [1]; [26]): 62.5 µg/mL (≈ 260 µM) | MIC (MRSA and MSSA [1]; [27]): 62.5 µg/mL (≈ 260 µM) | MIC (MRSA and MSSA [1]; [28]): 62.5 µg/mL (≈ 260 µM) | effect of combination use with oxacillin (words) (MRSA and MSSA [2]): potent effects of the combination use | FIC value ([3]; MRSA COL): 0.25 | FIC value ([3]; MRSA Strain No. 5): 0.313 | Ampicillin MIC (MRSA; [29]): 63 µg/mL | Cefapirin MIC (MRSA; [29]): 63 µg/mL | effects of the combination use with other β-lactams (MRSA; with penicillin G, cefoxitin, ampicillin, and cefapirin): excellent effects of the combination use

CC(C)COC(=O)c1cc(O)c(O)c(O)c1 [isoButyl gallate, isobutyl gallate]
MIC50 (MRSA and MSSA [1]): 125 µg/mL (≈ 553 µM) | MIC (MRSA and MSSA [1]; ATCC 6538 / MRSA / MSSA): 125 µg/mL (≈ 553 µM) | MIC (MRSA and MSSA [1]; [4]): 125 µg/mL (≈ 553 µM) | MIC (MRSA and MSSA [1]; [5]): 125 µg/mL (≈ 553 µM) | MIC (MRSA and MSSA [1]; [6]): 62.5 µg/mL (≈ 276 µM) | MIC (MRSA and MSSA [1]; [7]): 125 µg/mL (≈ 553 µM) | MIC (MRSA and MSSA [1]; [8]): 125 µg/mL (≈ 553 µM) | MIC (MRSA and MSSA [1]; [9]): 125 µg/mL (≈ 553 µM) | MIC (MRSA and MSSA [1]; [10]): 62.5 µg/mL (≈ 276 µM) | MIC (MRSA and MSSA [1]; [11]): 125 µg/mL (≈ 553 µM) | MIC (MRSA and MSSA [1]; [12]): 125 µg/mL (≈ 553 µM) | MIC (MRSA and MSSA [1]; [13]): 62.5 µg/mL (≈ 276 µM) | MIC (MRSA and MSSA [1]; [14]): 62.5 µg/mL (≈ 276 µM) | MIC (MRSA and MSSA [1]; [15]): 125 µg/mL (≈ 553 µM) | MIC (MRSA and MSSA [1]; [16]): 125 µg/mL (≈ 553 µM) | MIC (MRSA and MSSA [1]; [17]): 125 µg/mL (≈ 553 µM) | MIC (MRSA and MSSA [1]; [18]): 125 µg/mL (≈ 553 µM) | MIC (MRSA and MSSA [1]; [19]): 125 µg/mL (≈ 553 µM) | MIC (MRSA and MSSA [1]; [20]): 125 µg/mL (≈ 553 µM) | MIC (MRSA and MSSA [1]; [21]): 125 µg/mL (≈ 553 µM) | MIC (MRSA and MSSA [1]; [22]): 125 µg/mL (≈ 553 µM) | MIC (MRSA and MSSA [1]; [23]): 125 µg/mL (≈ 553 µM) | MIC (MRSA and MSSA [1]; [24]): 125 µg/mL (≈ 553 µM) | MIC (MRSA and MSSA [1]; [25]): 125 µg/mL (≈ 553 µM) | MIC (MRSA and MSSA [1]; [26]): 125 µg/mL (≈ 553 µM) | MIC (MRSA and MSSA [1]; [27]): 62.5 µg/mL (≈ 276 µM) | MIC (MRSA and MSSA [1]; [28]): 125 µg/mL (≈ 553 µM) | effect of combination use with oxacillin (words) (MRSA and MSSA [2]): potent effects of the combination use | effect of the combination use with oxacillin by FIC values ([3]; COL Strain and Strain No. 5): most potent effect of the combination use | FIC value ([3]; MRSA COL): 0.129 | FIC value ([3]; MRSA Strain No. 5): 0.266
